Laboratory results as given in PubChem BioAssay (NCI).
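How tested: cells in 96-well plates exposed to compound for 48 hours at five concentrations. GI50: concentration for 50% inhibition of growth. Definition used: TGI = concentration required for complete inhibition of growth.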

Columns and labels:
Assay in all cases: inhibition of tumour cell growth, NCI panel, 48 h
[1] = test system: 786-0 renal
[2] = test system: A498 renal
[3] = test system: A549 NSCLC
[4] = test system: ACHN renal
[5] = test system: BT-549 breast
[6] = test system: CAKI-1 renal
[7] = test system: CCRF-CEM leukemia
[8] = test system: COLO 205 colon
[9] = test system: DU-145 prostate
[10] = test system: EKVX NSCLC
[11] = test system: HCC-2998 colon
[12] = test system: HCT-116 colon
[13] = test system: HCT-15 colon
[14] = test system: HL-60(TB) leukemia
[15] = test system: HOP-62 NSCLC
[16] = test system: HS 578T breast
[17] = test system: HT29 colon
[18] = test system: IGROV1 ovarian
[19] = test system: K-562 leukemia
[20] = test system: KM12 colon
[21] = test system: LOX IMVI melanoma
[22] = test system: M14 melanoma
[23] = test system: MALME-3M melanoma
[24] = test system: MCF7 breast
[25] = test system: MDA-MB-231 breast
[26] = test system: MDA-MB-435
[27] = test system: MOLT-4 leukemia
[28] = test system: NCI-H226 lung
[29] = test system: NCI-H23 lung
[30] = test system: NCI-H522 lung
[31] = test system: NCI/ADR-RES ovarian
[32] = test system: OVCAR-3 ovarian
[33] = test system: OVCAR-4 ovarian
[34] = test system: OVCAR-5 ovarian
[35] = test system: OVCAR-8 ovarian
[36] = test system: PC-3 prostate
[37] = test system: RPMI-8226 leukemia
[38] = test system: RXF 393 renal
[39] = test system: SF-268 CNS
[40] = test system: SF-295 CNS
[41] = test system: SF-539 CNS
[42] = test system: SK-MEL-2 melanoma
[43] = test system: SK-MEL-28 melanoma
[44] = test system: SK-OV-3 ovarian
[45] = test system: SN12C renal
[46] = test system: SNB-19 CNS
[47] = test system: SNB-75 CNS
[48] = test system: SR leukemia
[49] = test system: SW-620 colon
[50] = test system: T-47D breast
[51] = test system: TK-10 renal
[52] = test system: U251 CNS
[53] = test system: UACC-257 melanoma
[54] = test system: UACC-62 melanoma
[55] = test system: UO-31 renal

For `CN(c1ccc(Br)cc1)S(=O)(=O)c1ccc(-c2cnc(C3CC3)o2)cc1`, the GI50 [1] was 397 nM, the TGI [1] was > 100 µM and the GI50 [2] was 50 nM. For the same compound, the TGI [2] was 700 nM, the GI50 [3] was 321 nM and the TGI [3] was > 100 µM. The GI50 [4] was 677 nM, the TGI [4] was > 100 µM and the GI50 [5] was 2960 nM. For the same compound, the TGI [5] was > 100 µM, the GI50 [6] was 84.6 nM and the TGI [6] was > 100 µM. The GI50 [7] was 86.2 nM, the TGI [7] was > 100 µM and the GI50 [8] was 370 nM. For the same compound, the TGI [8] was > 100 µM, the GI50 [9] was 375 nM and the TGI [9] was > 100 µM. For the same compound, the GI50 [10] was 454 nM, the TGI [10] was > 100 µM and the GI50 [11] was 299 nM. For the same compound, the TGI [11] was > 100 µM, the GI50 [12] was 129 nM and the TGI [12] was > 100 µM. The GI50 [13] was 60.3 nM, the TGI [13] was > 100 µM and the GI50 [14] was 32.6 nM. For the same compound, the TGI [14] was 142 nM, the GI50 [15] was 412 nM and the TGI [15] was > 100 µM. The GI50 [16] was 279 nM, the TGI [16] was > 100 µM and the GI50 [17] was 210 nM. The TGI [17] was > 100 µM, the GI50 [18] was 253 nM and the TGI [18] was > 100 µM. For the same compound, the GI50 [19] was 41.9 nM, the TGI [19] was > 100 µM and the GI50 [20] was 225 nM. The TGI [20] was > 100 µM, the GI50 [21] was 93.9 nM and the TGI [21] was > 100 µM. The GI50 [22] was 156 nM, the TGI [22] was > 100 µM and the GI50 [23] was 3.84 µM. For the same compound, the TGI [23] was > 100 µM, the GI50 [24] was 45.1 nM and the TGI [24] was > 100 µM. The GI50 [25] was 480 nM, the TGI [25] was > 27.4 µM and the GI50 [26] was 30.9 nM. The TGI [26] was 111 nM, the GI50 [27] was 286 nM and the TGI [27] was > 100 µM. It also gave a GI50 [28] of 284 nM, a TGI [28] of 7.52 µM and a GI50 [29] of 393 nM. For the same compound, the TGI [29] was > 100 µM, the GI50 [30] was 374 nM and the TGI [30] was > 100 µM. The GI50 [31] was 73.2 nM, the TGI [31] was > 40.7 µM and the GI50 [32] was 109 nM. The TGI [32] was 5.27 µM, the GI50 [33] was 774 nM and the TGI [33] was > 100 µM. For the same compound, the GI50 [34] was 524 nM, the TGI [34] was > 100 µM and the GI50 [35] was 597 nM. For the same compound, the TGI [35] was > 100 µM, the GI50 [36] was 121 nM and the TGI [36] was > 100 µM. It also gave a GI50 [37] of 209 nM, a TGI [37] of 2470 nM and a GI50 [38] of 85.9 nM. For the same compound, the TGI [38] was 403 nM, the GI50 [39] was 1160 nM and the TGI [39] was > 100 µM. For the same compound, the GI50 [40] was 71.2 nM, the TGI [40] was > 100 µM and the GI50 [41] was 142 nM. The TGI [41] was 2700 nM, the GI50 [42] was 1340 nM and the TGI [42] was > 100 µM. The GI50 [43] was 9.45 µM, the TGI [43] was > 100 µM and the GI50 [44] was 5.33 µM. The TGI [44] was > 100 µM, the GI50 [45] was 1030 nM and the TGI [45] was > 100 µM. For the same compound, the GI50 [46] was 271 nM, the TGI [46] was > 100 µM and the GI50 [47] was 114 nM. For the same compound, the TGI [47] was > 52.1 µM, the GI50 [48] was 48.5 nM and the TGI [48] was > 100 µM. The GI50 [49] was 82.7 nM, the TGI [49] was > 100 µM and the GI50 [50] was 839 nM. The TGI [50] was > 100 µM, the GI50 [51] was > 64.4 µM and the TGI [51] was > 100 µM. For the same compound, the GI50 [52] was 324 nM, the TGI [52] was > 100 µM and the GI50 [53] was > 53.3 µM. For the same compound, the TGI [53] was > 100 µM, the GI50 [54] was 65.8 nM and the TGI [54] was > 100 µM. The GI50 [55] was 880 nM and the TGI [55] was > 100 µM.
